The supplement of paper PMC11061612

Legend:
[1] = compound: Cn1cnc2c(F)c(Nc3ccc(Br)cc3Cl)c(C(=O)NOCCO)cc21 [Selumetinib]; details: max 10 µM
Method in brief: (§1)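 Plates with 1536 wells received cancer cell lines in 7.5 μl of DMEM/F12 or RPMI containing 10% FBS. After 24 hours at 37°C and 5% CO2, cells were dosed for 72 hours with final DMSO typically 0.2%, and viability was read by CellTiter-Glo 2.0 luminescence scaled between blank-well and DMSO-well means. The single-agent IC50 was taken from a logistic fit of the dose responses made with a non-linear mixed effects model, that logistic curve having two parameters.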

[2] = compound: Cc1c2c(nn1C)CSCc1cc(n(C)n1)CSc1cc(c3ccccc3c1)OCCCc1c(C(=O)O)n(C)c3c-2c(Cl)ccc13 [AZD5991]; details: max 1 µM
Method in brief: as §1

[3] = compound: CN(C)CCCOc1ccc(-c2ccc3ncc4c(c3c2)n(C2CCOCC2)c(=O)n4C)cn1 [AZD0156]
Method in brief: as §1

[4] = compound: NC1(c2ccc(-c3nc4ccn5c(=O)[nH]nc5c4cc3-c3ccccc3)cc2)CCC1 [MK-2206]; details: max 10 µM
Method in brief: as §1

[5] = compound: CC(=O)Nc1cccc(-n2c(=O)n(C3CC3)c(=O)c3c(Nc4ccc(I)cc4F)n(C)c(=O)c(C)c32)c1 [Trametinib]; details: max 1 µM
Method in brief: as §1

[6] = compound: O=C(Nc1ccc2[nH]nc(-c3ccncc3)c2c1)[C@@H]1CCN(CC(=O)N2CCN(c3ccc(-c4ncccn4)cc3)CC2)C1; details: max 5 µM
Method in brief: as §1

[7] = compound: C[C@@H](Oc1cc(-c2cnn(C3CCNCC3)c2)cnc1N)c1c(Cl)ccc(F)c1Cl [Crizotinib]; details: max 10 µM
Method in brief: as §1

[8] = compound: C1CN(CCC1(C(=O)N[C@@H](CCO)C2=CC=C(C=C2)Cl)N)C3=NC=NC4=C3C=CN4 [AZD5363]; details: max 10 µM
Method in brief: as §1

[9] = compound: CC(=O)c1c(C)c2cnc(Nc3ccc(N4CCNCC4)cn3)nc2n(C2CCCC2)c1=O [Palbociclib]; details: max 10 µM
Method in brief: as §1

[10] = compound: C1CC(C1)(C(=O)[O-])C(=O)[O-].N.N.[Pt+2] [Carboplatin]; details: max 10 µM
Method in brief: as §1

[11] = compound: COc1cc([C@@H]2c3cc4c(cc3[C@@H](O[C@@H]3O[C@@H]5CO[C@@H](C)O[C@H]5[C@H](O)[C@H]3O)[C@H]3COC(=O)[C@H]23)OCO4)cc(OC)c1O [Etoposide]; details: max 10 µM
Method in brief: as §1

[12] = compound: C[C@@H](Nc1cc(F)cc(F)c1)c1cc(C(=O)N(C)C)cc2c(=O)cc(N3CCOCC3)oc12 [AZD8186]; details: max 10 µM
Method in brief: as §1

[13] = compound: COc1cccc2c1C(=O)c1c(O)c3c(c(O)c1C2=O)C[C@@](O)(C(=O)CO)C[C@@H]3O[C@H]1C[C@H](N)[C@H](O)[C@H](C)O1 [Doxorubicin]; details: max 1 µM
Method in brief: as §1

[14] = compound: CC1(C)CCC(CN2CCN(c3ccc(C(=O)NS(=O)(=O)c4ccc(NCC5CCOCC5)c([N+](=O)[O-])c4)c(Oc4cnc5[nH]ccc5c4)c3)CC2)=C(c2ccc(Cl)cc2)C1 [Venetoclax]; details: max 1 µM
Method in brief: as §1

[15] = compound: O=C(c1cc(Cc2n[nH]c(=O)c3ccccc23)ccc1F)N1CCN(C(=O)C2CC2)CC1 [Olaparib]; details: max 10 µM
Method in brief: as §1

[16] = compound: CCN(CCO)CCCOc1ccc2c(Nc3cc(CC(=O)Nc4cccc(F)c4)[nH]n3)ncnc2c1 [AZD2811]; details: max 1 µM
Method in brief: as §1

[17] = compound: CS(=O)(=O)CCNCc1ccc(-c2ccc3ncnc(Nc4ccc(OCc5cccc(F)c5)c(Cl)c4)c3c2)o1 [Lapatinib]; details: max 10 µM
Method in brief: as §1

[18] = compound: N#Cc1cnc(Nc2cc(NC[C@H]3CNCCO3)c(C(F)(F)F)cn2)cn1 [SRA737]; details: max 10 µM
Method in brief: as §1

[19] = compound: COc1nnc2ccc(N3CCC(c4ccc(OCCN5CCN(C)C(=O)[C@H]5C)cc4)CC3)nn12 [AZD5153]; details: max 1 µM
Method in brief: as §1

[20] = compound: CC1=CN2[C@@H](C1)C=NC3=CC(=C(C=C3C2=O)OC)OCCCCCOC4=C(C=C5C(=C4)N=C[C@@H]6CC(=CN6C5=O)C)OC [SG3199]; details: max 0.001 µM
Method in brief: as §1

[21] = compound: COc1cc(Nc2ncc3c(n2)-c2ccc(Cl)cc2C(c2c(F)cccc2OC)=NC3)ccc1C(=O)O [Alisertib]; details: max 10 µM
Method in brief: as §1

[22] = compound: COc1cccc(OCCCN)c1-c1cc(Nc2cnc(C#N)cn2)n[nH]1 [Prexasertib]; details: max 1 µM
Method in brief: as §1

[23] = compound: CN(CC[C@H](CSC1=CC=CC=C1)NC2=C(C=C(C=C2)S(=O)(=O)NC(=O)C3=CC=C(C=C3)N4CCC(CC4)[C@H](C5=CC=CC=C5C6=CC=C(C=C6)Cl)O)S(=O)(=O)C(F)(F)F)CCO [AZD4320]; details: max 1 µM
Method in brief: as §1

[24] = compound: Nc1ccn([C@@H]2O[C@H](CO)[C@@H](O)C2(F)F)c(=O)n1 [Gemcitabine]; details: max 0.3 µM
Method in brief: as §1

[25] = compound: C[C@@H]1COCCN1C2=NC(=NC(=C2)C3(CC3)[S@](=N)(=O)C)C4=C5C=CNC5=NC=C4 [AZD6738]; details: max 10 µM
Method in brief: as §1

[26] = compound: CC(=O)O[C@H]1C(=O)[C@@]2(C)[C@H]([C@H](OC(=O)c3ccccc3)[C@]3(O)C[C@H](OC(=O)[C@H](O)[C@@H](NC(=O)c4ccccc4)c4ccccc4)C(C)=C1C3(C)C)[C@]1(OC(C)=O)CO[C@@H]1C[C@@H]2O [Paclitaxel]; details: max 3 µM
Method in brief: as §1

[27] = compound: CC1=C(C(=CC=C1)Cl)NC(=O)C2=CN=C(S2)NC3=CC(=NC(=N3)C)N4CCN(CC4)CCO [Dasatinib]; details: max 2 µM
Method in brief: as §1

[28] = compound: C=CCn1c(=O)c2cnc(Nc3ccc(N4CCN(C)CC4)cc3)nc2n1-c1cccc(C(C)(C)O)n1 [AZD1775]
Method in brief: as §1

[29] = compound: Cc1nc(-c2cn3c(n2)-c2ccc(-c4cnn(C(C)(C)C(N)=O)c4)cc2OCC3)n(C(C)C)n1 [Taselisib]; details: max 10 µM
Method in brief: as §1

[30] = compound: O=c1[nH]cc(F)c(=O)[nH]1 [5-Fluorouracil]; details: max 20 µM
Method in brief: as §1

[31] = compound: COc1cc2ncnc(Nc3ccc(F)c(Cl)c3)c2cc1OCCCN1CCOCC1 [Gefitinib]; details: max 10 µM
Method in brief: as §1

[32] = compound: CCc1c2c(nc3ccc(O)cc13)-c1cc3c(c(=O)n1C2)COC(=O)[C@]3(O)CC [SN-38]; details: max 0.3 µM
Method in brief: as §1

[33] = compound: CC(C)n1c(=O)n(C)c2cnc3cc(F)c(-c4ccc(OCCCN5CCCCC5)nc4)cc3c21 [AZD1390]; details: max 0.3 µM
Method in brief: as §1

[34] = compound: Cc1cc2ncnn2cc1Nc1ncc2c(n1)n(C1CCOCC1)c(=O)n2C [AZD7648]; details: max 10 µM
Method in brief: as §1

[35] = compound: C[C@@H](c1ccc2nccn2c1)n1nnc2ncc(-c3cnn(C)c3)nc21 [Savolitinib]; details: max 1 µM
Method in brief: as §1

Cell Line | IC50, cell viability 72 h [1] | IC50, cell viability 72 h [2] | IC50, cell viability 72 h ([3]; max 3 µM) | IC50, cell viability 72 h [4] | IC50, cell viability 72 h [5] | IC50, cell viability 72 h [6] | IC50, cell viability 72 h [7] | IC50, cell viability 72 h [8] | IC50, cell viability 72 h [9] | IC50, cell viability 72 h [10] | IC50, cell viability 72 h [11] | IC50, cell viability 72 h [12] | IC50, cell viability 72 h [13] | IC50, cell viability 72 h [14] | IC50, cell viability 72 h [15] | IC50, cell viability 72 h [16] | IC50, cell viability 72 h [17] | IC50, cell viability 72 h [18] | IC50, cell viability 72 h [19] | IC50, cell viability 72 h [20] | IC50, cell viability 72 h [21] | IC50, cell viability 72 h [22] | IC50, cell viability 72 h [23] | IC50, cell viability 72 h [24] | IC50, cell viability 72 h [25] | IC50, cell viability 72 h [26] | IC50, cell viability 72 h [27] | IC50, cell viability 72 h ([28]; max 3 µM) | IC50, cell viability 72 h [29] | IC50, cell viability 72 h [30] | IC50, cell viability 72 h [31] | IC50, cell viability 72 h [32] | IC50, cell viability 72 h [33] | IC50, cell viability 72 h [34] | IC50, cell viability 72 h [35] | IC50, cell viability 72 h ([3]; max 1 µM) | IC50, cell viability 72 h ([28]; max 1 µM)
ML-2 (Acute Myeloid Leukemia) | 381 nM | 62.6 nM | > 3000 nM | > 10000 nM | 20.6 nM | 290 nM | 1950 nM | 5950 nM | 2410 nM | > 10000 nM | 342 nM | > 10000 nM | 70.3 nM | 118 nM | 8050 nM | 20.9 nM | > 10000 nM | 995 nM | 116 nM | > 1 nM | 660 nM | 4.33 nM | 27.5 nM | 13.6 nM | 1780 nM | 5.85 nM | > 2000 nM | 243 nM | 1530 nM | 1550 nM | > 10000 nM | 4.88 nM | > 300 nM | > 10000 nM | > 1000 nM | – | –
KGN (Other Solid Carcinomas) | > 10000 nM | > 1000 nM | > 3000 nM | > 10000 nM | 999 nM | > 5000 nM | 4340 nM | > 10000 nM | 2850 nM | > 10000 nM | 2000 nM | 3860 nM | 95 nM | > 1000 nM | > 10000 nM | 451 nM | > 10000 nM | > 10000 nM | 153 nM | > 1 nM | 1590 nM | 117 nM | > 1000 nM | 6.01 nM | 2750 nM | 12.8 nM | 167 nM | 490 nM | 2320 nM | > 20000 nM | > 10000 nM | 8.95 nM | > 300 nM | > 10000 nM | > 1000 nM | – | –
NCI-H522 (Lung Adenocarcinoma) | > 10000 nM | > 1000 nM | > 3000 nM | > 10000 nM | > 1000 nM | > 5000 nM | > 10000 nM | > 10000 nM | > 10000 nM | > 10000 nM | > 10000 nM | > 10000 nM | > 1000 nM | > 1000 nM | > 10000 nM | > 1000 nM | > 10000 nM | > 10000 nM | > 1000 nM | > 1 nM | > 10000 nM | > 1000 nM | > 1000 nM | > 300 nM | > 10000 nM | 59.5 nM | > 2000 nM | > 3000 nM | > 10000 nM | > 20000 nM | > 10000 nM | > 300 nM | > 300 nM | > 10000 nM | > 1000 nM | – | –
SW872 (Other Solid Carcinomas) | > 10000 nM | > 1000 nM | > 3000 nM | > 10000 nM | > 1000 nM | > 5000 nM | > 10000 nM | > 10000 nM | > 10000 nM | > 10000 nM | 6820 nM | > 10000 nM | 784 nM | > 1000 nM | > 10000 nM | > 1000 nM | > 10000 nM | > 10000 nM | 793 nM | > 1 nM | > 10000 nM | 156 nM | > 1000 nM | 69.1 nM | > 10000 nM | 210 nM | > 2000 nM | > 3000 nM | 8840 nM | 8430 nM | > 10000 nM | 20.9 nM | > 300 nM | > 10000 nM | > 1000 nM | – | –
MV-4-11 (Acute Myeloid Leukemia) | 3350 nM | 5.9 nM | – | 7870 nM | 70.3 nM | 1350 nM | 1880 nM | 4430 nM | 1000 nM | > 10000 nM | 149 nM | > 10000 nM | 33.1 nM | 7.99 nM | > 10000 nM | 20.6 nM | > 10000 nM | 1290 nM | 24.2 nM | > 1 nM | 35.5 nM | 17.1 nM | 1.74 nM | 3.43 nM | 994 nM | 3.97 nM | > 2000 nM | – | 7860 nM | 939 nM | 4160 nM | 2.99 nM | > 300 nM | > 10000 nM | > 1000 nM | > 1000 nM | 503 nM
